Laboratory results as given in patent US20260151375A1, “CDK2 INHIBITORS AND METHODS OF USING THE SAME” (Cedilla Therapeutics, Inc., priority 2022, published 2026).
Where a name gives a salt, the structure may show the parent alone.

Key:
[1] = biological target: T1, CDK2/Cyclin E1 (Homo sapiens, UniProt P24941); assay: Caliper Assay (LabChip EZ Reader mobility shift assay), inhibition of CDK2/Cyclin E1 activity; assay type: biochemical; conditions: 2.5 nM CDK2/Cyclin E1(14-475), 100 μM ATP, 30 min preincubation; read-out: Caliper Assay (CDK2/CCNE1): IC50
T1 construct: purchased 14-475
Outline: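 Compounds were preincubated 30 min with CDK2/Cyclin E1(14-475), then run for 100 min with 2.5 nM enzyme, 100 μM ATP and 1.5 μM 5-FAM-QSPKKG peptide in HEPES pH 7.5 (final). Reactions were EDTA-stopped and substrate-to-product conversion read by mobility shift. IC50 came from a four-parameter fit.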

[2] = tested on: Kuramochi cells; assay: IncuCyte Kuramochi Assay (cell proliferation); assay type: cell-based; conditions: 72 h, Kuramochi cells labeled with mApple-H2B, cell count, read-out: IncuCyte - Kuramochi RB-WT: IC50
Outline: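 Cells imaged at 0 and 72 h after compound treatment (10 points, ½ log dilution, 20 μM top), with fluorescent nuclei counted. Fold change in count was normalized to DMSO wells and fitted to dose-response curves to give GI50.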

[3] = biological target: T1, CDK2/Cyclin E1; assay: ADPGLO (CDK2/E1-37 C), ADP-Glo Luminescent Kinase Assay; assay type: biochemical; conditions: 0.18 nM CDK2/Cyclin E1, 100 μM ATP, Histone H1, 37° C.
Outline: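 Human CDK2/Cyclin E1 preincubated with inhibitor 60 min at 37 °C, then reacted 90 min at 37 °C with final 0.18 nM enzyme, 100 μM ATP, 1.5 μM Histone H1 in HEPES pH 7.5 buffer. ADP formed read by ADP-Glo luminescence; IC50 from four-parameter fit.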

[4] = tested on: mouse models of polycystic kidney disease; conditions: Bukanov et al., Nature 2006; cited from earlier work

| Compound | IC50 [1] [µM] | IC50 [2] [µM] | IC50 [3] [µM] | arrest of cystic kidney disease [4] |
| --- | --- | --- | --- | --- |
| O=C(c1ccn[nH]1)N1CC(c2nnc(C(F)(F)c3ccc(Cl)c(Cl)c3)o2)C2(CN(CC3CCCO3)C2)C1 (stereo not shown) [I-139, (8-(5-((3,4-dichlorophenyl)difluoromethyl)-1,3,4-oxadiazol-2-yl)-2-((tetrahydrofuran-2-yl)methyl)-2,6-diazaspiro[3.4]octan-6-yl)(1H-pyrazol-5-yl)methanone formate] | > 100 | > 10 | > 100 | – |
| O=C(c1cnc(O)cn1)N1CC(c2nnc(C(F)(F)c3ccc(Cl)c(Cl)c3)o2)C2(CN(CC3CCCO3)C2)C1 (stereo not shown) [I-140] | > 10 | > 10 | > 10 | – |
| O=C(c1cn[nH]c1C(F)(F)F)N1CC(c2nnc(C(F)(F)c3ccc(Cl)c(Cl)c3)o2)C2(CN(CC3CCCO3)C2)C1 (stereo not shown) [I-141] | > 100 | > 10 | > 10 | – |
| O=C(c1cc(C(F)(F)F)n[nH]1)N1CC(c2nnc(C(F)(F)c3ccc(Cl)c(Cl)c3)o2)C2(CN(CC3CCCO3)C2)C1 (stereo not shown) [I-142] | > 100 | > 10 | > 10 | – |
| O=C(c1cn[nH]c1)N1CC(c2nnc(C(F)(F)c3ccc(Cl)c(Cl)c3)o2)C2(CN(CC3CCCO3)C2)C1 (stereo not shown) [I-143] | > 100 | > 10 | > 10 | – |
| CC[C@H](CO)Nc1nc(NCc2ccccc2)c2ncn(C(C)C)c2n1 [roscovitine] | – | – | – | effective arrest of cystic kidney disease |
